The results in this text go back to patent publication US4039666A, “Anticonvulsant phenylsilanes” (Dow Corning Corporation, priority 1976, dated 1977).

Read-outs that look alike come from different tables or passages of the source. Some results are limits rather than exact numbers.

A short description of one data set: Acute oral LD50. Format: in vivo, mice (male, 25 gm.). As to conditions: mouse, in vivo; Table II; male mice, oral in sesame oil, highest dose 5000 mg/kg, observed 14 days, Finney's method; read-out: LD50 (95% Confidence Interval). As for the experimental part:
(§1) ^1 Male mice, 25 gm. were used. Each compound was
(§2) given orally in sesame oil at doses ranging from
(§3) highest dose was 5000 mg/kg. The mice were
(§4) observed for 14 days and the number of deaths
(§5) was recorded. LD50 values were calculated by […]

The subject of data set [1] is mice. The data set can be described thus: Acute oral LD50. The format is in vivo, mice (male, 25 gm.). As to conditions: Table II footnote 2; oral in sesame oil, up to 5000 mg/kg, 14 days. As to the method:
as §1, §2, §3, §4, §5

Data set [2] concerns mice. The data set can be described thus: Electroshock test (Maximal Electroshock Test, M.E.S.), inhibition of tonic extension of hind limbs. As to conditions: Mus musculus. The format is in vivo, mice (adult male, Carworth CF 1 strain). As to the method: The electroshock test procedure was used to determine anticonvulsant activities of diphenylmethylsilanol. Adult male mice (Carworth CF 1 strain) were utilized as test animals. […] Seizure protection was scored as inhibition of tonic extension. Groups of mice (six/group) were dosed orally with varying amounts of diphenylmethylsilanol in a sesame oil suspension. The dosages ranged from 10 to 1000 mg./kg. and the train of electric shocks was applied 2, 4 and 6 hours after dosing. The effective dose to prevent convulsions in half the animals (ED50) was determined at 2, 4 and 6 hours to be 52, 63, 100 mg/kg, respectively, and the 95 percent CI (confidence interval) was 23 to 114 mg./kg.; 27 to 141 mg./kg.; 47 to 212 mg./kg.
The electric shock test procedure was also used to determine anticonvulsant activities of phenylmethyldimethoxysilane. Adult male mice (Carworth CF 1 strain) were utilized as test animals. […] Seizure protection was scored as in Example 1. Groups of mice ten/group) were dosed orally with varying amounts of phenylmethyldimethoxysilane in a sesame oil solution. The dosages ranged from 25 to 200 mg./kg. and the train of electric shocks was applied 1/2, 1, 11/2, 2 and 3 hours after dosing. The effective dose to prevent convulsions in half the animals (ED50) was determined at 1/2, 1, 11/2, 2 and 3 hours to be 52, 86, 64, 82 and 90 mg./kg., respectively. Utilizing the same electroshock test procedure as set forth in the first paragraph of this example, groups of mice (ten/group) were dosed intraperitoneally with varying amounts of phenylmethyldimethoxysilane in a sesame oil solution. The dosages ranged from 25 to 200 mg./kg. and the train of electric shocks was applied 1/2, 1, 11/2, 2 and 3 hours after dosing. The effective dose to prevent convulsions in half the animals (ED50) was determined at 1/2, 1, 11/2, 2 and 3 hours to be 45, 65, 52, 51 and 70 mg./kg., respectively.
The electric shock test used in Example 1 and 2 was used in determining the anticonvulsant activities of several other silanes.
(§6) ^1 The test silane was administered orally in sesame oil vehicle at
^2 M.E.S. - Maximal Electroshock Test - ED50 is dose calculated
to protect 50% of mice from tonic extensor convulsion. The dosages ranged
Background: Protection in the maximal electroshock model is a classic sign of anticonvulsant action.

Data set [3] has as its system mice. Briefly: Protection vs. pentylenetetrazol clonic convulsions. As to conditions: Table I, 316 mg/kg test compound, oral in sesame oil, pentylenetetrazol 80 mg/kg s.c., n.p. = no protection observed; for responders at 316 mg/kg: Mus musculus, read-out: Protection vs. Pentylenetetrazol (numbers of mice protected from clonic convulsion/number tested) (converted). Format: in vivo. As for the experimental part: as §6
^3 Pentylenetetrazol 80 mg/kg s.c. produces clonic convulsions in 90%
of control mice. Values in table are the numbers of mice protected from
clonic convulsion/number tested when dosed with 316 mg/kg test compound.

The test system of data set [4] is mice. Briefly: Potentiation of hexobarbital sleep time (relative sedative activity). The format is in vivo, mice (male, Carworth CF1 strain). As to conditions: Table I; 316 mg/kg test compound oral, 90 minutes before hexobarbital 100 mg/kg i.p. As to the method:
As a test of relative sedative activity of the various silanes, the ability of each to potentiate the action of hexobarbital was studied. For each silane, two groups of male mice (Carworth CF1 strain) were utilized as test animals. Two groups of mice (six/group) were used, one group was orally dosed with 316 mg./kg. of the test silane in sesame oil carrier 90 minutes before administration of hexobarbital. Hexobarbital was administered by intraperitoneal injection of 100 mg./kg. in saline carrier. The time from loss of the righting reflex to recovery of the righting reflex was recorded as sleep time. Potentiation of hexobarbital of the test silane is the ratio of the mean sleep time by the group of test animals dosed with the silane divided by the mean sleep time of the control group not dosed with silane.
^4 Potentiation of hexobarbital - values are the ratios of sleep time
of animals dosed with 316 mg/kg test compound plus 100 mg/kg hexobarbital
to the sleep times of animals dosed with hexobarbital alone.

[5] abbreviates: Table I, oral, sesame oil, 2 hours after dosing, n.p. = no protection observed, read-out: MES ED50.
Setting [6] is: Table I, oral, sesame oil, 4 hours after dosing, read-out: MES ED50.
The mark [7] stands for this setting: Table I, oral, sesame oil, 6 hours after dosing, read-out: MES ED50.

As to `C[Si](O)(c1ccccc1)c1ccccc1` [drawing 15], the 50% lethal dose (LD50) – broadly, the dose expected to kill half of the subjects tested – at 336 h in the data set “Acute oral LD50” was greater than 5000 mg/kg. Further, the “deaths observed at any dose level used” value in the data set with mice [1] was “No deaths were observed”.

Consider `CO[Si](C)(OC)c1ccccc1` [phenylmethyldimethoxysilane], for which the 50% effective dose (ED50) (as a rule, the dose that gives a 50% effect, or the effect in half of the subjects) in the data set on mice [2] (0.5 h, Example 2, oral, sesame oil solution, 1/2 hour after dosing, ten mice/group, read-out: effective dose to prevent convulsions in half the animals (ED50)) amounted to 52 mg/kg; in the data set on mice [2] (1.5 h, Example 2, oral, sesame oil solution, 11/2 hours after dosing, ten mice/group, read-out: effective dose to prevent convulsions in half the animals (ED50)), 64 mg/kg; with mice [2] (ip, 0.5 h, Example 2, intraperitoneal, sesame oil solution, 1/2 hour after dosing, ten mice/group, read-out: effective dose to prevent convulsions in half the animals (ED50)) it was 45 mg/kg; with mice [2] (ip, 1.5 h, Example 2, intraperitoneal, sesame oil solution, 11/2 hours after dosing, ten mice/group, read-out: effective dose to prevent convulsions in half the animals (ED50)) it was 52 mg/kg; in the data set on mice [2] (ip, Example 2, intraperitoneal, sesame oil solution, 1 hour after dosing, ten mice/group, read-out: effective dose to prevent convulsions in half the animals (ED50)) it was 65 mg/kg; in the data set with mice [2] (ip, Example 2, intraperitoneal, sesame oil solution, 2 hours after dosing, ten mice/group, read-out: effective dose to prevent convulsions in half the animals (ED50)), 51 mg/kg. Also, the ED50 in the data set with mice [2] (ip, Example 2, intraperitoneal, sesame oil solution, 3 hours after dosing, ten mice/group, read-out: effective dose to prevent convulsions in half the animals (ED50)) was determined as 70 mg/kg; in the data set on mice [2] (Example 2, oral, sesame oil solution, 1 hour after dosing, ten mice/group, read-out: effective dose to prevent convulsions in half the animals (ED50)), 86 mg/kg; with mice [2] (Example 2, oral, sesame oil solution, 2 hours after dosing, ten mice/group, read-out: effective dose to prevent convulsions in half the animals (ED50)), 82 mg/kg; in the data set on mice [2] (Example 2, oral, sesame oil solution, 3 hours after dosing, ten mice/group, read-out: effective dose to prevent convulsions in half the animals (ED50)), 90 mg/kg; with mice [2] (setting [5]), 56 mg/kg; with mice [2] (setting [6]), 50 mg/kg. Further, the median effective dose (ED50) in the data set with mice [2] (setting [7]) came out at 106 mg/kg. Moreover, the responders at 316 mg/kg with mice [3] is 33.3%. For the same compound, the “Potentiation of Hexobarbital (ratio of sleep time with test compound to hexobarbital alone)” value in the data set with mice [4] turned out to be 1.2.

As to `CCO[Si](OCC)(OCC)c1ccccc1` [.phi.Si(OCH2 CH3)3], the ED50 in the data set on mice [2] (setting [5]) was 170 mg/kg; in the data set with mice [2] (setting [6]) it was 31 mg/kg; in the data set on mice [2] (setting [7]), 220 mg/kg. Further, in the data set on mice [3], the “Protection vs. Pentylenetetrazol (numbers of mice protected from clonic convulsion/number tested)” value is given as “n.p”. For the same compound, in the data set on mice [4], the “Potentiation of Hexobarbital (ratio of sleep time with test compound to hexobarbital alone)” value came out at 2.1. The LD50 at 336 h in “Acute oral LD50” came to 5140 mg/kg.

In the case of `C[Si](O)(c1ccccc1)c1ccccc1` [diphenylmethylsilanol], the ED50 in the data set with mice [2] (Example 1, oral, sesame oil suspension, 2 hours after dosing, 95 percent CI 23 to 114 mg./kg., six mice/group, read-out: effective dose to prevent convulsions in half the animals (ED50)) is 52 mg/kg; with mice [2] (Example 1, oral, sesame oil suspension, 4 hours after dosing, 95 percent CI 27 to 141 mg./kg., six mice/group, read-out: effective dose to prevent convulsions in half the animals (ED50)), 63 mg/kg; in the data set on mice [2] (Example 1, oral, sesame oil suspension, 6 hours after dosing, 95 percent CI 47 to 212 mg./kg., six mice/group, read-out: effective dose to prevent convulsions in half the animals (ED50)), 100 mg/kg; with mice [2] (setting [5]), 52 mg/kg; in the data set with mice [2] (setting [6]), 63 mg/kg; in the data set on mice [2] (setting [7]), 100 mg/kg. In the data set on mice [3], the responders at 316 mg/kg was 50%. The “Potentiation of Hexobarbital (ratio of sleep time with test compound to hexobarbital alone)” value in the data set with mice [4] is 1.5.

On to `C=C[Si](OCC)(OCC)c1ccccc1` [drawing 10; R1=CHCH2; X=OC2 H5], for which the results for the ED50 in the data set with mice [2] (setting [5]), in the data set on mice [2] (setting [6]) and in the data set on mice [2] (setting [7]) were 170 mg/kg, 200 mg/kg and 200 mg/kg, respectively. In the data set with mice [3], the responders at 316 mg/kg was 16.7%. Further, the “Potentiation of Hexobarbital (ratio of sleep time with test compound to hexobarbital alone)” value with mice [4] is 0.9.

In the case of `CC(C)O[Si](C)(OC(C)C)c1ccccc1` [drawing 10; R1=CH3; X=OCH(CH3)2], the ED50 in the data set with mice [2] (setting [5]) turned out to be 94 mg/kg; with mice [2] (setting [6]), 84 mg/kg; in the data set with mice [2] (setting [7]), 41 mg/kg. Also, the responders at 316 mg/kg with mice [3] is 33.3%. The “Potentiation of Hexobarbital (ratio of sleep time with test compound to hexobarbital alone)” value in the data set on mice [4] was 1.8.

As for `CCO[Si](C)(C)c1ccccc1` [drawing 14], the median lethal dose (LD50) at 336 h in “Acute oral LD50” is 5380 mg/kg.

With `CCO[Si](CC)(OCC)c1ccccc1` [drawing 10; R1=C2 H5; X=OC2 H5], the ED50 with mice [2] (setting [5]) was determined as 150 mg/kg; in the data set on mice [2] (setting [6]) it was 180 mg/kg; with mice [2] (setting [7]), 64 mg/kg. Further, the responders at 316 mg/kg in the data set with mice [3] was 66.7%. Further, in the data set with mice [4], the “Potentiation of Hexobarbital (ratio of sleep time with test compound to hexobarbital alone)” value was found to be 1.8.
